# Patent US12195427B2, “MASP-2 inhibitors and methods of use” (priority 2018, dated 2025)
# Biological target: MASP-2 CCP2-SP (Homo sapiens (Human), UniProt O00187)
# Assay: MASP-2 co-crystallization, X-ray crystallography and structure analysis (H-bonds, van der Waals contacts);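 on Ligand-pharmacophore element distance, pharmacophore element C2: distance from averaged pharmacophore element to bound ligand; missing value means element absent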;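 on Ligand-pharmacophore element distance, pharmacophore element C3: distance from averaged pharmacophore element to bound ligand; missing value means element absent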;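 on Ligand-pharmacophore element distance, pharmacophore element C4: distance from averaged pharmacophore element to bound ligand; missing value means element absent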;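 on Ligand-pharmacophore element distance, pharmacophore element C5: distance from averaged pharmacophore element to bound ligand; missing value means element absent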
# Set-up: van der Waals contact distance, MASP-2 HIS 483 atom CD2 / van der Waals contact distance, MASP-2 HIS 483 atom NE2 / van der Waals contact distance, SER 654 C to compound atom / van der Waals contact distance, SER 654 O to compound atom / van der Waals contact distance, TRP 655 C to compound atom / van der Waals contact distance, MASP-2 GLY 528 atom CA / van der Waals contact distance TRP 655 atom CZ3 / van der Waals contact distance TRP 655 atom N / van der Waals contact distance TRP 655 atom CE3 / van der Waals contact distance GLY 656 atom C / van der Waals contact distance GLY 656 atom CA / van der Waals contact distance GLY 656 atom O / van der Waals contact distance, MASP-2 TYR 607 atom CD1 / van der Waals contact distance, MASP-2 PRO 606 atom O / d(C3,CA1) / d(CA1,N1)2 / d(H4,O1) / d(H4,O2) / d(O1,O2) / d(CA1,O2) / d(CA6,O1) / d(CA6,O2) / d(CA1,C5) / d(O2,H3) / d(N2,C2) / d(CA5,N2) / d(N2,C4) / d(N2,C6) / d(N2,CA3) / d(N2,O3) / d(O4,H2): unit not given beside the values
# Settings: for Ligand-pharmacophore element distance, pharmacophore element C2 / Ligand-pharmacophore element distance, pharmacophore element C3 / Ligand-pharmacophore element distance, pharmacophore element C4 / Ligand-pharmacophore element distance, pharmacophore element C5 / Ligand-pharmacophore element distance, pharmacophore element C6 / Ligand-pharmacophore element distance, pharmacophore element C7 / Ligand-pharmacophore element distance, pharmacophore element CA1 / Ligand-pharmacophore element distance, pharmacophore element CA2 / Ligand-pharmacophore element distance, pharmacophore element CA3 / Ligand-pharmacophore element distance, pharmacophore element CA4 / Ligand-pharmacophore element distance, pharmacophore element CA5 / Ligand-pharmacophore element distance, pharmacophore element CA6: Table A4-1; for d(CA1,N1) / d(CA1,O1) / d(CA1,O2) / d(H4,O1) / d(H4,O2) / d(O1,O2): Table A5-1 pharmacophore: distance between elements, S2/S1 region; for a(CA1, O1, O2) / a(O1, O2, H4) / A(N1, CA1, O1) a): Table A6-1 pharmacophore angle; for A(N1, CA1, O1) a): all compounds with protonatable center N1 except Methyl-amino-pyridine; for Pharmacophore torsion angle a(O1, O2, N2, CA2) / Pharmacophore torsion angle a(O1, O2, N2, CA3) / Pharmacophore torsion angle a(O1, O2, N2, H1) / Pharmacophore torsion angle a(O1, O2, N2, O3): Table A7-2
# Summary of the method: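 Inhibitor complexes were obtained by soaking crystals of E. coli-derived human MASP-2 CCP2-SP. Synchrotron diffraction at 1.0 wavelength, molecular replacement and partial refinement gave the models; one pose per ligand was chosen for contact analysis.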
# [1] = Table A5-2 pharmacophore distance, S3/S4 region
# [2] = Table A7-1, between pharmacophore elements of the bound compound
# [3] = between pharmacophore elements of the bound compound
# [4] = Table A8-6, nearest protein atom in cell to the left
# Sequence of MASP-2 CCP2-SP (O00187 445-686): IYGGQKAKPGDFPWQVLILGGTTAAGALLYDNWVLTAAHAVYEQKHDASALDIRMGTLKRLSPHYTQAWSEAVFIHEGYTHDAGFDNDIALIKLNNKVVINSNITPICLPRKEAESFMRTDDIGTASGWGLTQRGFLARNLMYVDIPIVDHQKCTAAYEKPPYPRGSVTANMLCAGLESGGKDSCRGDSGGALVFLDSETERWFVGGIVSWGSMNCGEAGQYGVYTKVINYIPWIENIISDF
# Sequence of MASP-2 CCP2-SP (O00187 364-432 partner): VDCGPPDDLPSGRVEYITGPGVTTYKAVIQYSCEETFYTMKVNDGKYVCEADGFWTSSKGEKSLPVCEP
compound,measurement,setting,value
CC(NC(=O)C(CCc1ccccc1)NCCCc1ccc(O)cc1)C(=O)NCc1ccc(C(=N)N)cc1.Cl.Cl (stereo not shown) [1145_A],"Ligand-pharmacophore element distance, pharmacophore element C2",,0
same,"Ligand-pharmacophore element distance, pharmacophore element C3",,0
same,"Ligand-pharmacophore element distance, pharmacophore element C4",,0
same,"Ligand-pharmacophore element distance, pharmacophore element C5",,0
same,"Ligand-pharmacophore element distance, pharmacophore element C6",,0
same,"Ligand-pharmacophore element distance, pharmacophore element C7",,0
same,"Ligand-pharmacophore element distance, pharmacophore element CA1",,0.47
same,"Ligand-pharmacophore element distance, pharmacophore element CA2",,0.41
same,"Ligand-pharmacophore element distance, pharmacophore element CA3",,1.22
same,"Ligand-pharmacophore element distance, pharmacophore element CA4",,0
same,"Ligand-pharmacophore element distance, pharmacophore element CA5",,0
same,"Ligand-pharmacophore element distance, pharmacophore element CA6",,0
same,"d(CA1,N1)",,3.54
same,"d(CA1,O1)",,4.42
same,"d(CA1,O2)",,4.42
same,"d(H4,O1)",,4.89
same,"d(H4,O2)",,4.48
same,"d(O1,O2)",,3.28
same,"d(N2,CA2)",[1],5.91
same,"d(N2,CA3)",[1],5.59
same,"d(N2,H1)",[1],8.64
same,"d(N2,O3)",[1],7.97
same,"d(O2,H3)",[1],5.36
same,"d(O2,N2)",[1],2.77
same,"a(CA1, O1, O2)",,111.73
same,"a(O1, O2, H4)",,139.31
same,"A(N1, CA1, O1) a)",,162.28
same,"a(O1, O2, H3)",Table A6-2 pharmacophore angle,150.25
same,"a(O1, O2, N2)",Table A6-2 pharmacophore angle,136.24
same,"a(O2, N2, CA2)",Table A6-2 pharmacophore angle,153.28
same,"a(O2, N2, CA3)",Table A6-2 pharmacophore angle,161.48
same,"a(O2, N2, H1)",Table A6-2 pharmacophore angle,168.81
same,"a(O2, N2, O3)",Table A6-2 pharmacophore angle,168.41
same,"Pharmacophore torsion angle a(H4, O1, O2, H3)",[2],48.71
same,"Pharmacophore torsion angle a(H4, O1, O2, N2)",[2],124.15
same,"Pharmacophore torsion angle a(N1, CA1, O2, H4)",[2],−128.41
same,"Pharmacophore torsion angle a(O1, H4, O2, CA1)",[2],−59.90
same,"Pharmacophore torsion angle a(O1, O2, N2, CA2)",[3],140.87
same,"Pharmacophore torsion angle a(O1, O2, N2, CA3)",[3],−15.65
same,"Pharmacophore torsion angle a(O1, O2, N2, H1)",[3],−17.10
same,"Pharmacophore torsion angle a(O1, O2, N2, O3)",[3],−10.98
C[C@H](NC(=O)[C@@H](CCc1ccccc1)NCCCc1ccc(O)cc1)C(=O)NCc1ccc(C(=N)N)cc1.Cl.Cl [1145_B],"Ligand-pharmacophore element distance, pharmacophore element C2",,0
same,"Ligand-pharmacophore element distance, pharmacophore element C3",,0
same,"Ligand-pharmacophore element distance, pharmacophore element C4",,0
same,"Ligand-pharmacophore element distance, pharmacophore element C5",,0
same,"Ligand-pharmacophore element distance, pharmacophore element C6",,0
same,"Ligand-pharmacophore element distance, pharmacophore element C7",,0
same,"Ligand-pharmacophore element distance, pharmacophore element CA1",,0.47
same,"Ligand-pharmacophore element distance, pharmacophore element CA2",,0.41
same,"Ligand-pharmacophore element distance, pharmacophore element CA3",,1.22
same,"Ligand-pharmacophore element distance, pharmacophore element CA4",,0
same,"Ligand-pharmacophore element distance, pharmacophore element CA5",,0
same,"Ligand-pharmacophore element distance, pharmacophore element CA6",,0
same,"d(CA1,N1)",,3.54
same,"d(CA1,O1)",,4.42
same,"d(CA1,O2)",,4.42
same,"d(H4,O1)",,4.89
same,"d(H4,O2)",,4.48
same,"d(O1,O2)",,3.28
same,"d(N2,CA2)",[1],5.91
same,"d(N2,CA3)",[1],5.59
same,"d(N2,H1)",[1],8.68
same,"d(N2,O3)",[1],7.97
same,"d(O2,H3)",[1],5.36
same,"d(O2,N2)",[1],2.77
same,"a(CA1, O1, O2)",,111.73
same,"a(O1, O2, H4)",,139.31
same,"A(N1, CA1, O1) a)",,162.28
same,"a(O1, O2, H3)",Table A6-2 pharmacophore angle,150.25
same,"a(O1, O2, N2)",Table A6-2 pharmacophore angle,136.24
same,"a(O2, N2, CA2)",Table A6-2 pharmacophore angle,153.28
same,"a(O2, N2, CA3)",Table A6-2 pharmacophore angle,161.48
same,"a(O2, N2, H1)",Table A6-2 pharmacophore angle,168.66
same,"a(O2, N2, O3)",Table A6-2 pharmacophore angle,168.41
same,"Pharmacophore torsion angle a(H4, O1, O2, H3)",[2],48.71
same,"Pharmacophore torsion angle a(H4, O1, O2, N2)",[2],124.15
same,"Pharmacophore torsion angle a(N1, CA1, O2, H4)",[2],−128.41
same,"Pharmacophore torsion angle a(O1, H4, O2, CA1)",[2],−59.90
same,"Pharmacophore torsion angle a(O1, O2, N2, CA2)",[3],140.87
same,"Pharmacophore torsion angle a(O1, O2, N2, CA3)",[3],−15.65
same,"Pharmacophore torsion angle a(O1, O2, N2, H1)",[3],−15.97
same,"Pharmacophore torsion angle a(O1, O2, N2, O3)",[3],−10.98
CC(NC(=O)C(CCc1ccccc1)NCc1ccc(C(=O)N2CCOCC2)cc1)C(=O)NCc1ccc(C(=N)N)cc1.Cl.Cl (stereo not shown) [1153_A],"Ligand-pharmacophore element distance, pharmacophore element C2",,8.69
same,"Ligand-pharmacophore element distance, pharmacophore element C3",,0
same,"Ligand-pharmacophore element distance, pharmacophore element C4",,0
same,"Ligand-pharmacophore element distance, pharmacophore element C5",,0
same,"Ligand-pharmacophore element distance, pharmacophore element C6",,0
same,"Ligand-pharmacophore element distance, pharmacophore element C7",,0
same,"Ligand-pharmacophore element distance, pharmacophore element CA1",,0.43
same,"Ligand-pharmacophore element distance, pharmacophore element CA2",,0.34
same,"Ligand-pharmacophore element distance, pharmacophore element CA3",,4.19
same,"Ligand-pharmacophore element distance, pharmacophore element CA4",,0
same,"Ligand-pharmacophore element distance, pharmacophore element CA5",,0
same,"Ligand-pharmacophore element distance, pharmacophore element CA6",,0
same,"d(CA1,N1)",,3.54
same,"d(CA1,O1)",,5.79
same,"d(CA1,O2)",,4.38
same,"d(H4,O1)",,6.25
same,"d(H4,O2)",,4.36
same,"d(O1,O2)",,4.62
same,"d(N2,C2)",[1],8.34
same,"d(N2,CA2)",[1],6.18
same,"d(N2,CA3)",[1],3.78
same,"d(N2,O3)",[1],7.78
same,"d(O2,H3)",[1],2.71
same,"d(O2,N2)",[1],2.88
same,"a(CA1, O1, O2)",,99.83
same,"a(O1, O2, H4)",,132.39
same,"A(N1, CA1, O1) a)",,174.13
same,"a(O1, O2, H3)",Table A6-2 pharmacophore angle,138.79
same,"a(O1, O2, N2)",Table A6-2 pharmacophore angle,132.96
same,"a(O2, N2, C2)",Table A6-2 pharmacophore angle,168.69
same,"a(O2, N2, CA2)",Table A6-2 pharmacophore angle,152.46
same,"a(O2, N2, CA3)",Table A6-2 pharmacophore angle,157.4
same,"a(O2, N2, O3)",Table A6-2 pharmacophore angle,167.7
same,"Pharmacophore torsion angle a(H4, O1, O2, H3)",[2],86.11
same,"Pharmacophore torsion angle a(H4, O1, O2, N2)",[2],97.90
same,"Pharmacophore torsion angle a(N1, CA1, O2, H4)",[2],−11.60
same,"Pharmacophore torsion angle a(O1, H4, O2, CA1)",[2],15.20
same,"Pharmacophore torsion angle a(O1, O2, N2, C2)",[2],30.40
same,"Pharmacophore torsion angle a(O1, O2, N2, CA2)",[3],116.41
same,"Pharmacophore torsion angle a(O1, O2, N2, CA3)",[3],24.87
same,"Pharmacophore torsion angle a(O1, O2, N2, O3)",[3],43.95
same,Pharmacophore protein distance to MET_658 (first MET_658 column),"Table A8-6, 6th residue column, nearest protein atom in cell to the left",2.53
same,Pharmacophore protein distance to MET_658 (second MET_658 column),"Table A8-6, 9th residue column, nearest protein atom in cell to the left",3.26
same,Pharmacophore protein distance to GLY_528,[4],3.41
same,Pharmacophore protein distance to PHE_529,[4],3.23
same,Pharmacophore protein distance to PRO_608,[4],4.41
same,Pharmacophore protein distance to SER_611,[4],2.46
same,Pharmacophore protein distance to TRP_655,"Table A8-6, pharmacophore elements C6, CA3, O3, H1, nearest protein atom in cell to the left",3.42
